According to publication PMC7206119, “RIP1 inhibition blocks inflammatory diseases but not tumor growth or metastases” (Cell Death and Differentiation, 2019):

Legend:
Assay in all cases: biochemical
Parameters in all cases: DiscoverX kinase panel, active-site competition binding (KINOMEscan type), percent of control at one concentration
Settings in all cases: competition binding, percent of control
RIPK2 = RIPK2 (Homo sapiens, UniProt O43353)
ABL2 = ABL2 (Homo sapiens, UniProt P42684)
EPHA7 = EPHA7 (Homo sapiens, UniProt Q15375)
GRK7 = GRK7 (Homo sapiens, UniProt Q8WTQ7)
PIK3CA(E545A) = PIK3CA(E545A) (Homo sapiens, UniProt P42336, E545A)
FGFR3(G697C) = FGFR3(G697C) (Homo sapiens, UniProt P22607, G697C)
PRKR = target: T1, PRKR (Homo sapiens, UniProt P19525)
T1 construct: gene EIF2AK2

TTK = TTK (Homo sapiens, UniProt P33981)
ERK2 = target: T2, ERK2 (Homo sapiens, UniProt P28482)
T2 construct: gene MAPK1

EGFR(L861Q) = EGFR(L861Q) (Homo sapiens, UniProt P00533, L861Q)
[1] = target: T3, RSK1(Kin.Dom.1-N-terminal) (Homo sapiens, UniProt Q15418)
T3 construct: gene RPS6KA1; Kin.Dom.1-N-terminal

TNK1 = TNK1 (Homo sapiens, UniProt Q13470)
LIMK1 = LIMK1 (Homo sapiens, UniProt P53667)
GRK1 = GRK1 (Homo sapiens, UniProt Q15835)
ACVRL1 = ACVRL1 (Homo sapiens, UniProt P37023)
FLT3(ITD) = FLT3(ITD) (Homo sapiens, UniProt P36888, ITD)
MEK1 = target: T4, MEK1 (Homo sapiens, UniProt Q02750)
T4 construct: gene MAP2K1

CDC2L5 = target: T5, CDC2L5 (Homo sapiens, UniProt Q14004)
T5 construct: gene CDK13

HIPK4 = HIPK4 (Homo sapiens, UniProt Q8NE63)
[2] = target: T6, ABL1(E255K)-phosphorylated (Homo sapiens, UniProt P00519, E255K)
T6 construct: phosphorylated

CSNK1E = CSNK1E (Homo sapiens, UniProt P49674)

T3 sequence (Q15418 whole entry): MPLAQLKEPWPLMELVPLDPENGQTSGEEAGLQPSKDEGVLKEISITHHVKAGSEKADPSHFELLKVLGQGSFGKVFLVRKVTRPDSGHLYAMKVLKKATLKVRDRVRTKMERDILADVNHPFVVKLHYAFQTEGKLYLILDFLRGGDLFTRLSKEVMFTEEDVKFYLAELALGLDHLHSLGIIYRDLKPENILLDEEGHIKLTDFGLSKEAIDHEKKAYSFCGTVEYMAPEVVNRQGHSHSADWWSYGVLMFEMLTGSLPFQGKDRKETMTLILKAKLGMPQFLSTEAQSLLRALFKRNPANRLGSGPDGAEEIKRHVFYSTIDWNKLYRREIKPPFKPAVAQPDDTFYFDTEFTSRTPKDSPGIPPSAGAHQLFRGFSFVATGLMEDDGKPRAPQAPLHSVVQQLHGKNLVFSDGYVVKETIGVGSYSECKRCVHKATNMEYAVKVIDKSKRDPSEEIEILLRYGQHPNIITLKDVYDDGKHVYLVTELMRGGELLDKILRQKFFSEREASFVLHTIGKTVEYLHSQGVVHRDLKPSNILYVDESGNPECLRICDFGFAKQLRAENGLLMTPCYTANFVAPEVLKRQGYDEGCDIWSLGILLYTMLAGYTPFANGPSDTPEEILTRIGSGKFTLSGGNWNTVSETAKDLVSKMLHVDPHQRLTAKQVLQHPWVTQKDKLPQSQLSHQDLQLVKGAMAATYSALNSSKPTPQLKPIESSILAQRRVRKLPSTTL
Chain of PIK3CA(E545A) (P42336 whole entry E545A): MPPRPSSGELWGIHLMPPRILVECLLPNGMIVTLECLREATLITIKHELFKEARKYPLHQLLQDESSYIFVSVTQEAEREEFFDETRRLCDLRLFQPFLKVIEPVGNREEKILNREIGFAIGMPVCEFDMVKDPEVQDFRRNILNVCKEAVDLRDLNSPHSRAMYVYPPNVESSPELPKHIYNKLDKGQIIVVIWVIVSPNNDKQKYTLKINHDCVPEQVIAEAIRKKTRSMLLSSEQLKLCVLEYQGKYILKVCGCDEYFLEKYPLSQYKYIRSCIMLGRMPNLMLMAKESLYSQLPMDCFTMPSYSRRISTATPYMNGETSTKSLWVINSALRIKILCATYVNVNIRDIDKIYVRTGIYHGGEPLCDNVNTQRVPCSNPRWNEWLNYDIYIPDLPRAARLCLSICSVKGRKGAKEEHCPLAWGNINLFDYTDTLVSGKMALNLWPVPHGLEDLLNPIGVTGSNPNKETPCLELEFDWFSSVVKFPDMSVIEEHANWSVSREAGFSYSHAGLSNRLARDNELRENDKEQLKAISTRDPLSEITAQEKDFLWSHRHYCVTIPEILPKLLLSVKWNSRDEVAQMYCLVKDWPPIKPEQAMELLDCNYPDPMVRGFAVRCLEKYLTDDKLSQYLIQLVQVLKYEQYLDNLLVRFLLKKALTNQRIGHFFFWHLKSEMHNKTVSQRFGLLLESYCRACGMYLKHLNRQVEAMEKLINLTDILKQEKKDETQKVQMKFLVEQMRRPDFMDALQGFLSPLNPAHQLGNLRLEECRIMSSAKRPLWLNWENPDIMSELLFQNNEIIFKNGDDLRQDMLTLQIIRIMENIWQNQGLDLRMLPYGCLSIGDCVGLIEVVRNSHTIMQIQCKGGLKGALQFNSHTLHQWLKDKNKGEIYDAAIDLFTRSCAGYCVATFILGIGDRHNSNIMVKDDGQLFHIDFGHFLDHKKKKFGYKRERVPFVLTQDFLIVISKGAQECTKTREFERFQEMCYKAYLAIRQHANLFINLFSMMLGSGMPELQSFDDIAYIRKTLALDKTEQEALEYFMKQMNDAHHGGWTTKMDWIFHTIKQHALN
T6 sequence (P00519 whole entry E255K): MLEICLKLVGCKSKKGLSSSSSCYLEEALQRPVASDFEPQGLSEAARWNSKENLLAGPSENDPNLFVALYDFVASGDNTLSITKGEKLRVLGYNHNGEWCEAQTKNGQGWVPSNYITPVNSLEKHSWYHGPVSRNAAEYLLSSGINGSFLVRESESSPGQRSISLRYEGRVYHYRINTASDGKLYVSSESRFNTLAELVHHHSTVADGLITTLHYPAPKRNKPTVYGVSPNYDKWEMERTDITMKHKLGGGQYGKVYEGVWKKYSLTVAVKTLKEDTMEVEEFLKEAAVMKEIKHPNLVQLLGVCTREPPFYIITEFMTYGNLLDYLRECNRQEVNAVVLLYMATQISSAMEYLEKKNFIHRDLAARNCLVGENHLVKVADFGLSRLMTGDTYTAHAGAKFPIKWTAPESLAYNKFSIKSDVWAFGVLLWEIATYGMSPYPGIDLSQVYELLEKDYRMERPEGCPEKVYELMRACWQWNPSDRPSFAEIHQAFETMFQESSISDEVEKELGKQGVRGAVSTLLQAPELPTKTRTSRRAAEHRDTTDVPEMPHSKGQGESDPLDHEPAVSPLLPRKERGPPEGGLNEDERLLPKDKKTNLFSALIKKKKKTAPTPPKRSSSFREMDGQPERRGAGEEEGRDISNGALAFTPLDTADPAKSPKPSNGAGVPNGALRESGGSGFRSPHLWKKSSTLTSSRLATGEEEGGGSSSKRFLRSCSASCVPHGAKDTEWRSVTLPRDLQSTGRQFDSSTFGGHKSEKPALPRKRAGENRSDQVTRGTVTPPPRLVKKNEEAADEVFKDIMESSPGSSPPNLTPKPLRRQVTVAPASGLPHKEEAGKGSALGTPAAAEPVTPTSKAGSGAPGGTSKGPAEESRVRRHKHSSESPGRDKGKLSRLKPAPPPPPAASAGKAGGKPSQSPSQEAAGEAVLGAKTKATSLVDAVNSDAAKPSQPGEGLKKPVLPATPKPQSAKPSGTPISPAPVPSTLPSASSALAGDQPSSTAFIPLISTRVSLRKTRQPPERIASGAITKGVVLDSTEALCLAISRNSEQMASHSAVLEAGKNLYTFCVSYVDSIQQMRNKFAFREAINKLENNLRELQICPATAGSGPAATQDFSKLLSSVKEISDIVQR
Chain of ABL2 (P42684 whole entry): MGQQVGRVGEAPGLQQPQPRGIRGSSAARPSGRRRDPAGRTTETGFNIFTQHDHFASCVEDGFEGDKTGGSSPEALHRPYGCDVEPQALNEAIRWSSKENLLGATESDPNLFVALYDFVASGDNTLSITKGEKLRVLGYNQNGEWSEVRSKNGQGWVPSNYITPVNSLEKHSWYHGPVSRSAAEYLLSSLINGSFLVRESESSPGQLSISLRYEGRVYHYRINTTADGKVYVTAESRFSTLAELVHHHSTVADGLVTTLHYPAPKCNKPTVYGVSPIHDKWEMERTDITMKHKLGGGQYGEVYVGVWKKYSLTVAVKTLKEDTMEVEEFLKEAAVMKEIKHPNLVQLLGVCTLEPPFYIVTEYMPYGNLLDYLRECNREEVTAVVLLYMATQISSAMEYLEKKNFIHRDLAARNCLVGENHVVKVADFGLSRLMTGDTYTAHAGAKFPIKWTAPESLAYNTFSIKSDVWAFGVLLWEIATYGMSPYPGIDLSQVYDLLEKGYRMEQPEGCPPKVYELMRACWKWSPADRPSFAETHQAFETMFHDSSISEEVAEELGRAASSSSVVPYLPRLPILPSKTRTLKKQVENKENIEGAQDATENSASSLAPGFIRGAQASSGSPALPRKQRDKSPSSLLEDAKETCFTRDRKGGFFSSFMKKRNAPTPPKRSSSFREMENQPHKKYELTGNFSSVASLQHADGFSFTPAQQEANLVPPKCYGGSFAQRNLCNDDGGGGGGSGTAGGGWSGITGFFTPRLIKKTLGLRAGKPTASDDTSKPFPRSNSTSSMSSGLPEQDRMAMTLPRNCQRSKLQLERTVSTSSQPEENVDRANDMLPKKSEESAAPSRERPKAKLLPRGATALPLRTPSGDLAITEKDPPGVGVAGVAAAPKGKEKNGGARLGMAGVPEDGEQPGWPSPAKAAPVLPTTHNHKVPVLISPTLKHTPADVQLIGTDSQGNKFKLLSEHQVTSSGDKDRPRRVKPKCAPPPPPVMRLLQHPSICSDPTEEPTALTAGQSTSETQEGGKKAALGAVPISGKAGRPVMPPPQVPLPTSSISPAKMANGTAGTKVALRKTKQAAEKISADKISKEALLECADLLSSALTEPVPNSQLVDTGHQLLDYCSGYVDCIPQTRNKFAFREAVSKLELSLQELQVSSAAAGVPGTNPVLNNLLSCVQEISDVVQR
Chain of TTK (P33981 whole entry): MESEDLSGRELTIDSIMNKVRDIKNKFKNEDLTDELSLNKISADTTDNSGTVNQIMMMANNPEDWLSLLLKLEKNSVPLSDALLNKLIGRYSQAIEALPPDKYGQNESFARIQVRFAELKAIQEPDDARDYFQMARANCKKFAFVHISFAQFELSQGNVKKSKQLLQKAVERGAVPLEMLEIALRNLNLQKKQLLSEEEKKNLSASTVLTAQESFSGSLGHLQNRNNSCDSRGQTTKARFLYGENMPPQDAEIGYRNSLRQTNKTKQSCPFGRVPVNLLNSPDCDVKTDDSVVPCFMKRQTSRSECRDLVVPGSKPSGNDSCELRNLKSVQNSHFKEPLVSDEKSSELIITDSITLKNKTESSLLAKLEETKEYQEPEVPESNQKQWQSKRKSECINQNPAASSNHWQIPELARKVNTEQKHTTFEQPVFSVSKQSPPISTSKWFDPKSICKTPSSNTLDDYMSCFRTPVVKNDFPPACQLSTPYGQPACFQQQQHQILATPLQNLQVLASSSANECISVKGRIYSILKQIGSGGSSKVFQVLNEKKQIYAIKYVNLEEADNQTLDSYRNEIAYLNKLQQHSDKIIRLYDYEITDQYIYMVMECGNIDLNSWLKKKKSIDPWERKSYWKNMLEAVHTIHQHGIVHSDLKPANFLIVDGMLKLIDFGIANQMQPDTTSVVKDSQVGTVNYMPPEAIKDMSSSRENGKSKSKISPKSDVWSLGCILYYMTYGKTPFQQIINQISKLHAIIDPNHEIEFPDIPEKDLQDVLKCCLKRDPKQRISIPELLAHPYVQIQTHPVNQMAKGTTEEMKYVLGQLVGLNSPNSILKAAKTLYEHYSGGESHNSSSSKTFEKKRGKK

COc1cc2c(cn1)N(C)C(=O)[C@@H](NC(=O)c1nc3n(n1)[C@H](c1ccccc1)CC3)CC2 [GNE684, (S)-N-((S)-7-methoxy-1-methyl-2-oxo-2,3,4,5-tetrahydro-1H-pyrido[3,4-b]azepin-3-yl)-5-phenyl-6,7-dihydro-5H-pyrrolo[1,2-b][1,2,4]triazole-2-carboxamide]
remaining binding at 10 µM (RIPK2): 100% | remaining binding at 10 µM (ABL2): 100% | remaining binding at 10 µM (EPHA7): 100% | remaining binding at 10 µM (GRK7): 100% | remaining binding at 10 µM (PIK3CA(E545A)): 100% | remaining binding at 10 µM (FGFR3(G697C)): 88% | remaining binding at 10 µM (PRKR): 100% | remaining binding at 10 µM (TTK): 100% | remaining binding at 10 µM (ERK2): 100% | remaining binding at 10 µM (EGFR(L861Q)): 96% | remaining binding at 10 µM [1]: 98% | remaining binding at 10 µM (TNK1): 100% | remaining binding at 10 µM (LIMK1): 96% | remaining binding at 10 µM (GRK1): 67% | remaining binding at 10 µM (ACVRL1): 87% | remaining binding at 10 µM (FLT3(ITD)): 100% | remaining binding at 10 µM (MEK1): 91% | remaining binding at 10 µM (CDC2L5): 100% | remaining binding at 10 µM (HIPK4): 100% | remaining binding at 10 µM [2]: 91% | remaining binding at 10 µM (CSNK1E): 74%
